Experimental findings from patent US20200281897A1, “INDAZOLE DERIVATIVES FOR CANCER TREATMENT” (Servicio Andaluz de Salud, priority 2016, published 2020) are described below.

Series [1] concerns U266. Description: MTT cell viability assay, myeloma cell line U266. The settings on record: U266, MTT, 18 hours, doses 0-50 μM; read-out: IC50, cell viability. The class given is cell-based, human. On the procedure:
(§1) In vitro studies were carried out using six different human MM cell lines, U266, RPMI8226, MM1S, MM1R, U266-LR7, and RPMI-LR5. For ex vivo assays, human primary cells from healthy donors and MM patients were used (Table 1). Human MM cell lines U266, RPMI8226, and MM1.S were acquired from ATCC and lines U266-LR7, RPMI-LR5, and MM1.R were kindly provided by Dr. Enrique Ocio (Hospital Universitario de Salamanca, Spain). The primary cells were obtained from bone marrow (BM) aspirates or peripheral blood (PB) samples, and the peripheral blood mononuclear cells (PBMCs) were isolated by Ficoll-Hypaque centrifugation and washed twice in phosphate buffered saline (PBS) containing 1% BSA. Hematopoietic stem cells and B and T lymphocytes were isolated from healthy PB donors by positive immunomagnetic separation using human MACS CD34+, CD19+, and CD3+ microbeads, respectively. MM plasma cells were obtained from the bone marrow (BM) of patients with an infiltration of cells of more than 30% (Table 1). The MM plasma cells were identified using CD138+, and were then distinguished from the other cell populations by flow cytometry using a suitable combination of antibodies: anti-human CD64-FITC, CD34-PE, CD56-APC, CD38-APC-H7, and CD45-Pacific Blue antibodies (BD Biosciences, San Jose, Calif.). All the cell lines were cultured in RPMI-1640 supplemented with 10% fetal bovine serum (FBS) and 1% penicillin/streptomycin, as recommended by the supplier. For human primary cells, the concentration of FBS was up to 20%.
(§2) The MM cell lines and primary cells were exposed to different doses of indazole compounds, and viability was evaluated at 18, 48, and 72 hours. Pretreatments with the ceramide synthesis inhibitor (FB1), pan-caspase (ZVAD-FMK), and CB antagonists (PGN-8, PGN-37, and PGN-70) were performed for 30 minutes, and then the cells were incubated with indazole compound WIN-55 up to 18 hours. Cell viability was determined using the MTT assay Cell Counting Kit-8 (Dojindo, Kumamoto, Japan) according to the manufacturer's instructions.

The test system of the next series is U266-LR7. Description: MTT cell viability assay, myeloma cell line U266-LR7. The class given is cell-based, human. The settings on record: U266-LR7, MTT, 18 hours, doses 0-50 μM; read-out: IC50, cell viability. The procedure:
as §1, §2

Another series concerns MM1S. Description: MTT cell viability assay, myeloma cell line MM1S. The settings on record: MM1S, MTT, 18 hours, doses 0-50 μM; read-out: IC50, cell viability. The class given is cell-based, human. On the procedure:
as §1, §2

For a further series, the system named is myeloma cell lines. Description: MTT cell viability assay, average over all myeloma cell lines. The settings on record: average over the six myeloma cell lines, MTT, 18 hours; read-out: IC50 average. The class given is cell-based, human. The procedure:
as §1, §2

Series [2] has as its system U266. The experiment in a line: Cell viability by flow cytometry (annexin V/7-AAD), U266. The class given is cell-based, human. The settings on record: U266, 18 hours. On the procedure:
(§3) The cell viability of the MM cell lines and primary cells from healthy PB donors was also evaluated by flow cytometry using 7-AAD/Annexin V. Patient bone marrow (BM) cells were analyzed using 7-AAD with a combination of monoclonal antibodies against myeloma-associated antigens (anti-CD56-APC, anti-CD45-Pacific Blue, and anti-CD38-APC-H7 [BD Biosciences]) and antibodies for distinguishing the granulomonocytic population (anti-CD64-FITC) and lymphocytic population (anti-CD45-Pacific Blue). The cells were acquired by means of FACSCanto II flow cytometer (BD Biosciences) and analyzed using Infinicyt™ Software (Cytognos, Spain).

A further series concerns RPMI. The experiment in a line: Cell viability by flow cytometry (annexin V/7-AAD), RPMI. The class given is cell-based, human. The settings on record: 18 hours. The procedure: as §3
For series [3], the system named is myeloma plasma cells (MPCs, CD38+). Description: Ex vivo viability of myeloma plasma cells of MM patients by flow cytometry. The class given is cell-based, human. The settings on record: 18 hours, six MM patients. The procedure: In vitro studies were carried out using six different human MM cell lines, U266, RPMI8226, MM1S, MM1R, U266-LR7, and RPMI-LR5. For ex vivo assays, human primary cells from healthy donors and MM patients were used (Table 1). Human MM cell lines U266, RPMI8226, and MM1.S were acquired from ATCC and lines U266-LR7, RPMI-LR5, and MM1.R were kindly provided by Dr. Enrique Ocio (Hospital Universitario de Salamanca, Spain). The primary cells were obtained from bone marrow (BM) aspirates or peripheral blood (PB) samples, and the peripheral blood mononuclear cells (PBMCs) were isolated by Ficoll-Hypaque centrifugation and washed twice in phosphate buffered saline (PBS) containing 1% BSA. […]
as §3

The test system of series [4] is U266, U266-LR7, RPMI and RPMI-LR5. The experiment in a line: Synergy of WIN-55 with anti-myeloma agents, MTT and combination index. The class given is cell-based, human. The procedure:
The evaluation of the synergy of the indazole compound WIN-55 with other anti-myeloma agents, such as dexamethasone and melphalan, was done by evaluating cell viability by means of an MTT assay.
Unless otherwise indicated, an experiment representative of at least three independent experiments is shown. For all the statistical analyses, the data was analyzed by means of Student's T-test with the SPSS software with a statistical significance P≤0.05. The means and standard deviations were also determined. The synergy was calculated using R as described in the Calcusyn software; a combination index (CI)<1 indicates synergy, and >1 indicates antagonism.

The test system of the next series is U937. The experiment in a line: WST-1 cell viability assay, U937. The class given is cell-based, human. The settings on record: U937, 18 hours. The procedure: U937, NB-4, KG-1, and MOLM-13 (DMSZ, Braunschweig, Germany) were cultured in complete RPMI 1640 medium (with 2 mM of L-glutamine, 100 mg of penicillin, 100 μg/ml of streptomycin, and with 10% FBS), supplemented with 10 mM HEPES, 1×NaPuvuvato, and 1× non-essential amino acids.
The cell lines and primary cells were cultured in 96-well plates (5×10e5 cells per well) with the addition of the indicated concentrations of WIN 55,212-2 or PGN cannabinoids in DMSO or with the solvent only in triplicate at 18, 48, and 72 hours. Caspase inhibitor Z-VAD (OMe)-FMK or the CB2 receptor antagonist PGN-8, -37, and -70, together with the cannabinoid WIN-55,212-2, were also added. Cell viability was determined by means of the WST-1 assay [2-(4-iodophenyl)-3-(4-nitrophenyl)-5-(2,4-disulfophenyl)-2H-tetrazolium] according to the manufacturer's instructions (Dojindo Molecular Technologies). Optical densities were measured at 450 nm using a Multiskan™ Go Microplate plate reader (Thermo Fisher Scientific, Waltham, Mass., USA).
Now it will be analyzed whether the exposure to cannabinoids had any effect on the viability of the tumor cells in vitro. […]

Series [5] deals with hematopoietic progenitor populations. Description: Effect on normal hematopoiesis in healthy BALB/c mice. The class given is in vivo. The settings on record: 5 mg/kg/day for 7 and 28 days. On the procedure:
The effect of the cannabinoid on normal hematopoiesis was also tested by means of the treatment of healthy BALB/c mice with WIN-55,212-2 at a dose of 5 mg/kg/day for 7 and 28 days. The bone marrow and the peripheral blood population were analyzed by means of flow cytometry and blood counts.

Turning to `CS(=O)(=O)O.Cc1c(C(=O)c2cccc3ccccc23)c2cccc3c2n1[C@H](CN1CCOCC1)CO3` [WIN-55, (R)-(+)-[2,3-dihydro-5-methyl-3-(4-morpholinomethyl)-pyrrolo[1,2,3]-1,4-benzoxazin-6-yl]-1-naphthalenylmethanone mesylate], the IC50 in the series on U266 [1] stood at 17.2 µM; in the series with U266-LR7, 17.2 µM; with MM1S, 13.6 µM; in the series on myeloma cell lines, 14.6 µM; with U266 [2], 18.5 µM; with RPMI, 12.7 µM. The same compound yielded an IC50 in the series with U937 of 16 µM. The “decrease in cell viability of MPCs (CD38+)” value turned out to be 70% in series [3] (20 μM) and 85% in series [3] (50 μM). Moreover, the “combination effect (combination index) with dexamethasone” value in series [4] (WIN-55 20 μM (U266, U266-LR7, RPMI-LR5) or 10 μM (RPMI) plus DEX) is “synergistic effect”. Further, the “combination effect (combination index) with melphalan” value in [4] (WIN-55 20 μM (U266, U266-LR7, RPMI-LR5) or 10 μM (RPMI) plus MPH) is “synergistic effect”. Besides, the “% viable cells at 50 μM” value in the series with U937 is given as 17.2%. For the same compound, the “viability of hematopoietic progenitor populations” value in [5] was “do not affect the viability”.
